Earlier results as cited in US20230304031A1, “VECTORS AND METHODS FOR IN VIVO TRANSDUCTION” (Abintus Bio, Inc., priority 2020, published 2023).
Where a name gives a salt, the structure may show the parent alone. Read-outs that look alike come from different tables or passages of the source.

Key:
[1] = test system: HSPC; details: cited from earlier work; for HSPC mobilization (in words): as reported in the cited literature; for G-CSF-induced HSPC mobilization with NSAID: blocking of PGE2 production
[2] = test system: CD34+ cells / HSPC; details: cited from earlier work; for CD34+ HSPC counts in the blood: 24 hours post-injection; for median yield of CD34+ cells: 5 µg/kg/day after chemotherapy, relapsed Hodgkin's disease; for increase in the harvest of CFU-GM over baseline: 5 µg/kg/day alone for 4 days
[3] = target: phosphodiesterase type 5 (PDE5) (Homo sapiens, UniProt O76074); details: after oral administration; cited from earlier work
[4] = test system: VLA-5; details: after SCF stimulation; cited from earlier work
[5] = test system: VLA-4; details: after SCF stimulation; cited from earlier work
[6] = test system: HSPC; details: mice / murine models; cited from earlier work
[7] = test system: HSCs; details: cited from earlier work
[8] = 10 breast cancer patients, 0.84 ± 0.1 µg/kg/day

## c1cc(CN2CCCNCCNCCCNCC2)ccc1CN1CCCNCCNCCCNCC1 [AMD3100, reference compound]
[1]
  HSPC mobilization (in words): rapidly mobilize HSPCs in various animal models
[2]; subcutaneous 240 µg/kg
  CD34+ HSPC counts in the blood: approximately 10 cells/µL
  peak CD34+ HSPC counts in the blood: approximately 25 cells/µL
  time to peak CD34+ HSPC counts: 8 to 10 h
[2]; subcutaneous 480 µg/kg
  CD34+ HSPC counts in the blood: approximately 20 cells/µL
  peak CD34+ HSPC counts in the blood: approximately 30 cells/µL
  time to peak CD34+ HSPC counts: 8 to 10 h

## O=C(O)[C@H](Cc1ccc(OC(=O)N2CCCC2)cc1)NC(=O)[C@@H]1CCCN1S(=O)(=O)c1ccccc1 [BOP, N-(benzenesulfonyl)-L-prolyl-L-O-(1-pyrrolidinylcarbonyl)tyrosine]
[1]
  HSPC mobilization (in words): rapidly mobilizes long-term multi-lineage reconstituting HSPC

## C[C@@H](NCCCc1cccc(C(F)(F)F)c1)c1cccc2ccccc12 [Cinacalcet]
[1]; pharmacological activation of CaR
  HSPC adhesion, migration and homing: increased adhesion of HSPCs to collagen I and fibronectin

## CCCCCCCCc1ccc(CCC(N)(CO)CO)cc1 [FTY720]
[1]
  HSPC mobilization (in words): decreases steady-state mobilization of HSPCs

## CCOCc1cc(OC)c(-c2ccc(C[C@H](NC(=O)c3c(F)cccc3F)C(=O)O)cc2)c(OC)c1 [Firategrast]
[1]
  HSPC mobilization (in words): disrupt HSPC retention in the postnatal hematopoietic niche

## CC(=O)N[C@@H](CS)C(=O)O [NAC, N-acetyl-L-cysteine]
[1]
  HSPC mobilization (in words): significantly abrogate UDP-glc-induced HSPC mobilization

## CCCc1nn(C)c2c(=O)[nH]c(-c3cc(S(=O)(=O)N4CCN(C)CC4)ccc3OCC)nc12 [Sildenafil citrate]
[3]
  time of peak activity: 2 h

## CC(=O)Oc1ccccc1C(=O)O [aspirin]
[1]
  G-CSF-induced HSPC mobilization with NSAID: doubled

## O=P1(N(CCCl)CCCl)NCCCO1 (centres unmarked) [cyclophosphamide, reference compound]
[2]; doses of 4-7 g/m2
  CD34+ cell yields: ~3.62 × 10^6 cells/kg
[2]; single dose of 4 g/m^2
  increase in the number of CFU-GM: up to 25 fold

## CC(C)Cc1ccc(C(C)C(=O)O)cc1 (centres unmarked) [ibuprofen]
[1]
  G-CSF-induced HSPC mobilization with NSAID: doubled

## COc1ccc2c(c1)c(CC(=O)O)c(C)n2C(=O)c1ccc(Cl)cc1 [indomethacin]
[1]
  G-CSF-induced HSPC mobilization with NSAID: doubled

## GM-CSF: granulocyte-macrophage colony stimulating factor [reference compound]
[2]
  median yield of CD34+ cells: 5.6 × 10^6 CD34+ cells/kg
  increase in the harvest of CFU-GM over baseline: 33.7 fold
[2]; 250 µg/m2 versus 125 µg/m2
  CFU-GM content of mobilized HSPC populations: superior yield
[2]; 4-64 µg/kg/day continuous intravenous infusion up to 7 days, cancer patients
  increased HSPC in the peripheral blood: 4- to 18 fold

## Natalizumab: humanized monoclonal anti-VLA-4 antibody [reference compound]
[2]; patients receiving infusion therapy for multiple sclerosis
  increase in circulating CD34+ cells: approximately 3 fold

## SCF: Stem Cell Factor
[4]
  increase of VLA-5 expression on CD34+ HSPC: 4- to 10 fold
[5]
  increase of VLA-4 expression on CD34+ HSPC: approximately 2 fold

## vedolizumab: humanized monoclonal antibody against the α4β7 integrin
[6]
  HSPC mobilization (in words): Reduction in plasma CXCL12 levels, accompanied by reduced HSPC egress

B1: G-CSF: hematopoietic growth factor (protein, UniProt P09919 31-207, looked up)
Granulocyte …: TPLGPASSLPQSFLLKCLEQVRKIQGDGAALQEKLVSECATYKLCHPEELVLLGHSLGIPWAPLSSCPSQALQLAGCLSQLHSGLFLYQGLLQALEGISPELGPTLDTLQLDVADFATTIWQQMEELGMAPALQPTQGAMPAFASAFQRRAGGVLVASHLQSFLEVSYRVLRHLAQP
[7]; 1 day after 4 consecutive days of injections
  numbers of HSCs in the bloodstream: 3,400 HSCs/mouse
[7]; regimens as worded
  HSC mobilization (comparison in words): not significantly better than the 2-h Viagra + AMD3100 mobilization protocol
[2]
  median yield of CD34+ cells: 7.6 × 10^6 CD34+ cells/kg
  increase in the harvest of CFU-GM over baseline: 35.6 fold
[2]; 5 µg/kg/day
  increase in CD34+ content of peripheral blood over baseline: sevenfold
[2]; 10 µg/kg/day, 34 patients with Hodgkin's disease or NHL
  median harvest: 2.8 × 10^6 CD34+ cells/kg
[2]; 10 µg/kg/day
  CD34+ HSPC yield: 11.32 × 10^7 /kg cells
  increase in CD34+ content of peripheral blood over baseline: 28 fold
[2]; 12 µg/kg/day for 6 days, 17 patients with non-myeloid malignant disorders
  mean total harvested: 33 × 10^4 CFU-GM/kg
[2]; 24 µg/kg/day
  CD34+ HSPC yield: 48.25 × 10^7 /kg cells
[2]; [8]
  mean yield after the first leukapheresis: 0.77 × 10^6 CD34+ cells/kg
  mean yield after the second leukapheresis: 1.42 × 10^6 CD34+ cells/kg
[2]; G-CSF 5 µg/kg/day for a further 5 days after 7 days of GM-CSF 5 µg/kg/day
  increase in HSPC over baseline: 80 fold
[2]; by mobilization regimen
  mobilized PBPC cells expressing CD38: 88%
[2]; healthy subjects, G-CSF 5 plus GM-CSF 5 µg/kg/day versus G-CSF 10 µg/kg/day alone
  mean harvest yield: 119 × 10^6 CD34+ cells/kg
